For experiment [1], the target named is T1, NTS1R (Homo sapiens, UniProt P30989). In words: Radioligand competition binding with [^3H]UR-MK300 at intact HT-29 colon carcinoma cells. Particulars: [^3H]UR-MK300, intact HT-29 cells, 23 °C; read-out: NTS1R pKi ± SEM (converted). The method, then:
NTS1R binding affinities were determined in a reported competition binding assay[13] using intact hNTS1R-expressing HT-29 colon carcinoma cells and [^3H]UR-MK300 (structure see Figure 1A) as radioligand (competition binding curves shown in Figure S4, Supporting Information).
NTS1R radioligand competition binding experiments with [^3H]UR-MK300 (molar activity: 2.41 TBq/mmol) and the peptides 6–9, 10a, 10b, 13–16, and 18 were performed with intact hNTS1R-expressing human HT-29 colon carcinoma cells at 23 ± 1 °C using a previously reported protocol.[13] […] Cells were seeded one day before the assay, yielding a confluency of at least 90% on the day of the experiment. Total binding data (including total binding in the absence of competitor) were plotted as dpm values against log(concentration competitor) and analyzed by a four-parameter logistic equation (log(inhibitor) vs response–variable slope, GraphPad Prism 5, GraphPad Software, San Diego, CA) to obtain pIC50 values. Individual pIC50 values were converted to pKi values according to the Cheng–Prusoff equation[60] (logarithmic form). To plot average data from individual binding experiments, data were normalized (100% = “top” of the four-parameter logistic fit, 0% = unspecifically bound radioligand).
Background: Displacement assays read how much labelled ligand stays bound in the presence of the test substance.

In experiment [2] the target is T1, NTS1R. As to the kind of experiment: Fura-2 Ca^2+ assay at CHO-hNTS1R cells. Format: cell-based. Particulars: agonist mode, read-out: NTS1R pEC50 ± SEM (converted).
In experiment [3] the target is T1, NTS1R. In words: High-content imaging (HCI) competition binding, adherent CHO-hNTS1R cells. The conditions noted are these: labeled probe 13 ([…]), 90 min, 23 °C. The method, then:
The final volume per well was 200 μL. […] All experiments were performed in triplicate.

The target of experiment [4] is T1, NTS1R. In words: Flow cytometric (FC) competition binding, suspended CHO-hNTS1R cells. The conditions noted are these: labeled probe 13 (2.6 nM), 90 min, 23 °C. As for the experimental part: Flow cytometry-based NTS1R binding studies were performed with intact CHO-hNTS1R (all kind of experiments) and HT-29 cells (only saturation binding) using a BD FACSCanto II (Becton Dickinson, Heidelberg, Germany), equipped with an argon laser (488 nm) and a red diode laser (640 nm), and a BD High Throughput Sampler (HTS unit) for microtiter plates. Saturation and competition binding experiments were performed in triplicate in 96-well polypropylene plates (Brand 701330, Wertheim, Germany) using the HTS unit for sample injection. Association and dissociation experiments were performed in duplicate in 5 mL polypropylene tubes (VWR, Radnor) using the standard injection port of the flow cytometer. The following gain settings for forward and sideward scatter were applied: FSC, 0 V; SSC, 252 V. Fluorescence was recorded using the PE-channel (excitation: 488 nm, emission: 585 ± 21) nm with a PMT gain of 330–400 V. For measurements using the HTS unit, 45 μL of the sample were injected with a speed of 1.5 μL/s. For measurements, requiring the use of the standard injection port, the medium flow rate ([…]) was used. Measurements were stopped after 30 s (HTS unit) or after counting of 500–3000 gated events (standard injection port). […]
A 96-well polypropylene plate was prefilled with 200 μL of cell suspension. […] Data were analyzed as described for HCI competition binding experiments.
Background: In flow cytometry, cells or beads pass a laser one at a time.

Experiment [5] concerns the target T1, NTS1R. As to the kind of experiment: Radiochemical competition binding, adherent CHO-hNTS1R cells. The conditions noted are these: labeled probe [^3H]13 (1.3 nM), 90 min, 23 °C.
The target of experiment [6] is T1, NTS1R. In words: Radiochemical competition binding, suspended CHO-hNTS1R cells. Particulars: labeled probe [^3H]13 (1.8 nM), 90 min, 23 °C.
The target of experiment [7] is T1, NTS1R. In words: Radiochemical competition binding with [^3H]13 at membranes of CHO-hNTS1R cells. Particulars: labeled probe [^3H]13 ([…]), 50 μM GppNHp, 23 °C.
Experiment [8] concerns the target NTS1R. The conditions noted are these: reported binding data, cited from earlier work.
In experiment [9] the target is T1, NTS1R. As to the kind of experiment: Fluorescence anisotropy (FA) competition binding at hNTS1R-displaying BBVs. On the set-up: NlucC (C-terminal fragment of nanoluciferase, 11 amino acids) (C); made in house; host or cells: Sf9 insect cells, baculovirus (pIMACE-CMVintP10-hNTS1R-Nluc, DH10MultiBac); budded baculovirus particles. Particulars: 27 °C.

Where two headings read alike, the source gives them in different places. Starred links: 1 amine or outer side, 2 acyl side, 3 side chain; linkers in the order of their positions; H or OH if unused. Non-standard residues stand in square brackets, D forms with d. Residues, ends and D or L forms follow the SMILES beside them. Groups on a side chain read outwards from the residue. *: point of attachment. X1 = CN(C)c1ccc2c(-c3ccc(C(=O)*)cc3C(=O)[O-])c3ccc(=[N+](C)C)cc-3oc2c1; X4 = NCCCCNC(=O)N=C(N)NCCC[C@H](N[*:1])C(=O)[*:2]; dTyr(β,β-Me2) = CC(C)(c1ccc(O)cc1)[C@@H](N)C(=O)O; Tyr(β,β-Me2) = CC(C)(c1ccc(O)cc1)[C@H](N)C(=O)O; Gly(piperidin-4-yl) = N[C@H](C(=O)O)C1CCNCC1; X2 = O=C(CCc1cn(CCCN[*:1])nn1)[*:2]; Pent4ynoyl = C#CCCC(=O)*; Pra = C#CC[C@H](N)C(=O)O; NH(CH2)4NH2 = NCCCCN*; CO = O=C([*:1])[*:2]; Propionyl = CCC(=O)*; GABA = NCCCC(=O)O

Data on 7 compounds can be found in article PMC11440508, “Dually Labeled Neurotensin NTS1R Ligands for Probing Radiochemical and Fluorescence-Based Binding Assays” (Journal of Medicinal Chemistry, 2024).

T1 sequence (P30989 whole entry): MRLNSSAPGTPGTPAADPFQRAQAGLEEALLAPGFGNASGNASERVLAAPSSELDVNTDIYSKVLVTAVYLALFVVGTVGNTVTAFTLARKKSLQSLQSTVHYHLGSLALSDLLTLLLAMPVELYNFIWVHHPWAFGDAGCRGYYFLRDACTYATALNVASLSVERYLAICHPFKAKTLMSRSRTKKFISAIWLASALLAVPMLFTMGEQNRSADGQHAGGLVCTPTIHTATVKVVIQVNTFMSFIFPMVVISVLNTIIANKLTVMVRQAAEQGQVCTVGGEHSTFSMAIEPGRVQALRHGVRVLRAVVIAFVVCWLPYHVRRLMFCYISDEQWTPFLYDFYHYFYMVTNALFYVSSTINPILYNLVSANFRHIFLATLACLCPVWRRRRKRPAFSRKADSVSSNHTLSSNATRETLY

As to `CCC(=O)NCCCC[C@@H](NC(=O)CCc1cn(CCCNC(=O)c2ccc(-c3c4ccc(=[N+](C)C)cc-4oc4cc(N(C)C)ccc34)c(C(=O)[O-])c2)nn1)C(=O)N1CCC[C@H]1C(=O)N[C@@H](CCCNC(=N)N)C(=O)N[C@@H](CCCNC(=N)N)C(=O)N1CCC[C@H]1C(=O)N[C@@H](Cc1ccc(O)cc1)C(=O)N[C@H](C(=O)N[C@@H](CC(C)C)C(=O)O)[C@@H](C)CC` [Compound 15] (X1-[X2][dK](Propionyl)PRRPYIL-OH), on NTS1R [1], the Ki was 2.95 nM.
Same read-out and setting: the figure for `CCC(=O)NCCCC(=O)N[C@@H](Cc1cn(CCCNC(=O)c2ccc(-c3c4ccc(=[N+](C)C)cc-4oc4cc(N(C)C)ccc34)c(C(=O)[O-])c2)nn1)C(=O)N[C@H](C(=O)N1CCC[C@H]1C(=O)N[C@@H](CCCNC(=N)N)C(=O)N[C@@H](CCCNC(=N)N)C(=O)N1CCC[C@H]1C(=O)N[C@@H](Cc1ccc(O)cc1)C(=O)N[C@H](C(=O)N[C@@H](CC(C)C)C(=O)O)[C@@H](C)CC)C1CCNCC1` [Compound 16] is 0.724 nM; for `C#CCCC(=O)N[C@H](C(=O)N1CCC[C@H]1C(=O)N[C@@H](CCCNC(N)=NC(=O)NCCCCN)C(=O)N[C@@H](CCCNC(=N)N)C(=O)N1CCC[C@H]1C(=O)N[C@@H](C(=O)N[C@H](C(=O)N[C@@H](CC(C)C)C(=O)O)[C@@H](C)CC)C(C)(C)c1ccc(O)cc1)C1CCNCC1` [Compound 10b, N^α-(Pent-4-ynoyl)-2-(piperidin-4-yl)-Gly-Pro-N^ω-[(4-aminobutyl)aminocarbonyl]Arg-Arg-Pro-β,β-dimethyl-D-Tyr-Ile-Leu Tetrakis(hydrotrifluoroacetate)] (Pent4ynoyl-[Gly(piperidin-4-yl)]P[X4]RP[dTyr(β,β-Me2)]IL-OH) it is 135 nM; for `C#CCCC(=O)N[C@H](C(=O)N1CCC[C@H]1C(=O)N[C@@H](CCCNC(N)=NC(=O)NCCCCN)C(=O)N[C@@H](CCCNC(=N)N)C(=O)N1CCC[C@H]1C(=O)N[C@@H](Cc1ccc(O)cc1)C(=O)N[C@H](C(=O)N[C@@H](CC(C)C)C(=O)O)[C@@H](C)CC)C1CCNCC1` [Compound 6, N^α-(Pent-4-ynoyl)-2-(piperidin-4-yl)-Gly-Pro-N^ω-[(4-aminobutyl)aminocarbonyl]Arg-Arg-Pro-Tyr-Ile-Leu Tetrakis(hydrotrifluoroacetate)] (Pent4ynoyl-[Gly(piperidin-4-yl)]P[X4]RPYIL-OH) it is 0.603 nM.
For `C#CCCC(=O)N[C@H](C(=O)N1CCC[C@H]1C(=O)N[C@@H](CCCNC(=N)NC(=O)NCCCCN)C(=O)N[C@@H](CCCNC(=N)N)C(=O)N1CCC[C@H]1C(=O)N[C@H](C(=O)N[C@H](C(=O)N[C@@H](CC(C)C)C(=O)O)[C@@H](C)CC)C(C)(C)c1ccc(O)cc1)C1CCNCC1` [Compound 10a, N^α-(Pent-4-ynoyl)-2-(piperidin-4-yl)-Gly-Pro-N^ω-[(4-aminobutyl)aminocarbonyl]Arg-Arg-Pro-β,β-dimethyl-L-Tyr-Ile-Leu Tetrakis(hydrotrifluoroacetate)] (Pent4ynoyl-[Gly(piperidin-4-yl)]PR([CO-NH(CH2)4NH2])RP[Tyr(β,β-Me2)]IL-OH), on NTS1R [2], the EC50 was 0.316 nM.
Turning to SR142948, the “HCI: pKi ± SEM” value at NTS1R [3] is on record as 9.42 ± 0.21. Besides, on NTS1R [4], the “FC: pKi ± SEM” value stood at 9.24 ± 0.15. Moreover, the “RC adherent cells: pKi ± SEM” value on NTS1R [5] was found to be 8.31 ± 0.18. Further, at NTS1R [6], the “RC cell suspension: pKi ± SEM” value is 8.19 ± 0.16. Moreover, on NTS1R [7], the “pKi ± SEM” value is on record as 9.56 ± 0.06. In addition, the Ki on NTS1R [8] (ref 13) is 1.1 nM; on NTS1R [8] (ref 52), 1 nM. Also, at NTS1R [9] (labeled probe 13 (0.3 nM), NTS1R-BBVs, 90 min), the “FA: pKi ± SEM” value was 8.97. Also, the “FA: pKi” value at NTS1R [9] (labeled probe 18, NTS1R-BBVs) came to 9.19.
For `C#CC[C@H](NC(=O)CCCN)C(=O)N[C@H](C(=O)N1CCC[C@H]1C(=O)N[C@@H](CCCNC(=N)N)C(=O)N[C@@H](CCCNC(=N)N)C(=O)N1CCC[C@H]1C(=O)N[C@@H](Cc1ccc(O)cc1)C(=O)N[C@H](C(=O)N[C@@H](CC(C)C)C(=O)O)[C@@H](C)CC)C1CCNCC1` [Compound 9] (H-[GABA][Pra][Gly(piperidin-4-yl)]PRRPYIL-OH), the Ki at NTS1R [1] is 0.302 nM.
